# Tests used:
# [1] = system: norepinephrine-induced death in rats; test: norepinephrine antagonism test in rats (antihypertensive activity); type: in vivo, rat (male Wister); conditions: D = 40 mg/kg, i.p.; rat; norepinephrine 1.25 mg/kg i.v. after 2 hours
# Procedure: This activity is manifested by the protection of animals before death induced by an intravenous injection of norepinephrine, which produces a hypertensive attack in rats.
# Male Wister rats weighing 200 grammes are used in this test. The product to be studied is administered intraperitoneally and 1.25 mg/kg (i.v.) of norepinephrine are administered after 2 hours.
# The initial administration dose in these studies is 40 mg/kg (i.p.).
# [2] = system: familiarisation process in mice; test: light box/dark box test: familiarisation process (improvement of cognition); type: in vivo, mouse; design: Time in the box, dark (D): unit not given here
# Excerpt: The influence of this product on the familiarisation process of mice in the light box/dark box test described by J. M. Barnes et al., (Pharmacol. Biochem. Behav., 1990, 35, 955-962) is studied. On the one hand, the effect on learning (the speed of familiarisation) and on the other hand the capacity for blocking contrary effects produced by escopolamine are studied.
# The mouse is placed in the light zone of a box divided into two compartments, one brightly illuminated, the light box, and the other with little illumination, the dark box.
# 1) The number of times the mouse stands up on the hind paws in each compartment during a 5 minute period is counted (see Column 1 of the table below).
# 2) The activity in each compartment is given by counting the number of crossings through the squares which form the divisions of each compartment (see Column 2 of the table below).
# 3) The time passed in the dark box during the 5 minute counting period is determined (see Column 3 of the table below).
# 4) The initial latent period is determined, that is to say the time which elapses after the animal is placed in the light box, at the start of the test, before it enters the dark box (see Column 4 of the table below).
# Two treatments with the vehicle are administered to the control animals per day. Two doses of 0.00001 ng/kg p.o. of compound 42 are administered per day to the animals treated with this product. The same operation is repeated daily for 5 days.
# The animals learn to remain in the dark box for a longer period and to go into the box more rapidly.
# On day six escopolamine (2×0.25 mg/kg, i.p.) is administered.
# They recover the learned habit on day seven.
# [3] = day 1, 0.00001 ng/kg, p.o., twice per day
# [4] = day 2, 0.00001 ng/kg, p.o., twice per day
# [5] = day 3, 0.00001 ng/kg, p.o., twice per day
# [6] = day 4, 0.00001 ng/kg, p.o., twice per day
# [7] = day 5, 0.00001 ng/kg, p.o., twice per day
# [8] = day 6, after 2 treatments with escopolamine (0.25 mg/kg, i.p.), Example 42 at 0.00001 ng/kg p.o. twice per day
# [9] = day 7, 0.00001 ng/kg, p.o., twice per day
compound,measurement,setting,value
"Cc1nc(Cl)c(Cl)n1CCCCN1CCN(c2ncccn2)CC1.O=C(O)CC(O)(CC(=O)O)C(=O)O [Example 42, 4,5-dichloro-2-methyl-1-{4-[4-(2-pyrimidinyl)-1-piperazinyl]-butyl}-1H-imidazole citrate]",Activity % (norepinephrine antagonistic antihypertensive activity),[1],0%
same,"Activity within 5 min. period, dark (D)",[2]; [3],82
same,"Activity within 5 min. period, light (L)",[2]; [3],36
same,Latent period L-D,[2]; [3],11
same,"No. of times standing erect within 5 min period, dark (D)",[2]; [3],79
same,"No. of times standing erect within 5 min period, light (L)",[2]; [3],23
same,"Time in the box, dark (D)",[2]; [3],60
same,"Activity within 5 min. period, dark (D)",[2]; [4],167
same,"Activity within 5 min. period, light (L)",[2]; [4],11
same,Latent period L-D,[2]; [4],2
same,"No. of times standing erect within 5 min period, dark (D)",[2]; [4],147
same,"No. of times standing erect within 5 min period, light (L)",[2]; [4],10
same,"Time in the box, dark (D)",[2]; [4],80
same,"Activity within 5 min. period, dark (D)",[2]; [5],179
same,"Activity within 5 min. period, light (L)",[2]; [5],10
same,Latent period L-D,[2]; [5],2
same,"No. of times standing erect within 5 min period, dark (D)",[2]; [5],156
same,"No. of times standing erect within 5 min period, light (L)",[2]; [5],8
same,"Time in the box, dark (D)",[2]; [5],79
same,"Activity within 5 min. period, dark (D)",[2]; [6],183
same,"Activity within 5 min. period, light (L)",[2]; [6],9
same,Latent period L-D,[2]; [6],1.5
same,"No. of times standing erect within 5 min period, dark (D)",[2]; [6],161
same,"No. of times standing erect within 5 min period, light (L)",[2]; [6],9
same,"Time in the box, dark (D)",[2]; [6],83
same,"Activity within 5 min. period, dark (D)",[2]; [7],176
same,"Activity within 5 min. period, light (L)",[2]; [7],12
same,Latent period L-D,[2]; [7],1
same,"No. of times standing erect within 5 min period, dark (D)",[2]; [7],151
same,"No. of times standing erect within 5 min period, light (L)",[2]; [7],11
same,"Time in the box, dark (D)",[2]; [7],82
same,"Activity within 5 min. period, dark (D)",[2]; [8],181
same,"Activity within 5 min. period, light (L)",[2]; [8],14
same,Latent period L-D,[2]; [8],1.5
same,"No. of times standing erect within 5 min period, dark (D)",[2]; [8],172
same,"No. of times standing erect within 5 min period, light (L)",[2]; [8],10
same,"Time in the box, dark (D)",[2]; [8],81
same,"Activity within 5 min. period, dark (D)",[2]; [9],187
same,"Activity within 5 min. period, light (L)",[2]; [9],8
same,Latent period L-D,[2]; [9],1
same,"No. of times standing erect within 5 min period, dark (D)",[2]; [9],181
same,"No. of times standing erect within 5 min period, light (L)",[2]; [9],8
same,"Time in the box, dark (D)",[2]; [9],83
same,effect on the effects of escopolamine,"[2]; escopolamine 2×0.25 mg/kg, i.p., day six",blocks the effects of escopolamine
same,cognition-improving activity,[2]; mice,has a cognition-improving activity
same,effect on the learning process,[2]; mice,improves the learning process

# Source: patent US5382586A, “Aryl (or heteroaryl)piperazinylalkylazole derivatives, their preparation and their application as medicaments” (priority 1991, dated 1995)
